Values quoted from earlier work in patent US20090291152A1, “DIBENZOTHIAZEPINE DERIVATIVES” (Concert Pharmaceuticals Inc., priority 2006, published 2009).

Experiments:
[1] = majority of the metabolites
[2] = patients with hepatic impairment

metabolites excreted in the urine [1]: 73% | increase in AUC [2]: 3 fold | increase in Cmax [2]: 3 fold
SMILES: OCCOCCN1CCN(C2=Nc3ccccc3Sc3ccccc32)CC1 [quetiapine, 11-[4-[2-(2-Hydroxyethoxy)ethyl]piperazin-1-yl]dibenzo[b,f][1,4]thiazepine]
